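Tested at 5 concentrations; 48 h exposure; 96-well plates; endpoints linearly interpolated, else capped at highest concentration. At the TGI there is no net growth.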

Some test systems named below: CCRF-CEM leukemia; SK-MEL-5 melanoma; BT-549 breast; OVCAR-8 ovarian; SK-OV-3 ovarian; MDA-N; TK-10 renal; HT29 colon; HOP-62 NSCLC; EKVX NSCLC; LOX IMVI melanoma; UO-31 renal; UACC-257 melanoma; SK-MEL-28 melanoma; NCI-H226 lung; A549 NSCLC; SNB-19 CNS; HCT-116 colon.
Holding throughout (test): DTP human tumour cell line panel, 48 h

Take `CC(C)=CCC/C(C)=C/COc1c2ccoc2cc2oc(=O)ccc12`: the concentration for total growth inhibition (TGI) (usually the concentration at which net growth stops) is 50.2 µM in the experiment on CCRF-CEM leukemia; 28.6 µM in the experiment on SK-MEL-5 melanoma; above 100 µM in the experiment on BT-549 breast; above 100 µM in the experiment with OVCAR-8 ovarian; 82.6 µM in the experiment with SK-OV-3 ovarian; above 100 µM in the experiment on MDA-N. The TGI with TK-10 renal is above 100 µM; in the experiment with HT29 colon it was 81.1 µM; with HOP-62 NSCLC it was above 100 µM; with EKVX NSCLC, 72 µM; in the experiment with LOX IMVI melanoma, 46.4 µM; in the experiment with UO-31 renal it was 59.7 µM. The TGI in the experiment with UACC-257 melanoma was 90.4 µM; in the experiment on SK-MEL-28 melanoma, above 100 µM; with NCI-H226 lung, 87.6 µM; with A549 NSCLC, above 100 µM; with SNB-19 CNS it was above 100 µM; with HCT-116 colon, 85.4 µM.
For `C[C@@H]1C(=O)C[C@H]2C(C)(C)CCC[C@]2(C)[C@@]1(O)CCc1ccoc1`, the TGI in the experiment on CCRF-CEM leukemia, in the experiment on SK-MEL-5 melanoma, in the experiment on BT-549 breast, in the experiment with OVCAR-8 ovarian, with SK-OV-3 ovarian and in the experiment on MDA-N was above 100 µM each time. Further, the TGI in the experiment with TK-10 renal, in the experiment with HT29 colon, with HOP-62 NSCLC, in the experiment with EKVX NSCLC, in the experiment on LOX IMVI melanoma and with UO-31 renal was above 100 µM throughout. The concentration for total growth inhibition (TGI) in the experiment with UACC-257 melanoma, in the experiment on SK-MEL-28 melanoma, with NCI-H226 lung, in the experiment on A549 NSCLC, in the experiment with SNB-19 CNS and in the experiment on HCT-116 colon was above 100 µM each time.
As for `Clc1cccc(NN=Nc2ccc(-c3nc4ccccc4s3)cc2)c1`, the concentration for total growth inhibition (TGI) was 37.7 µM in the experiment with CCRF-CEM leukemia; 74.9 µM in the experiment on SK-MEL-5 melanoma; above 100 µM with BT-549 breast; 45.9 µM with OVCAR-8 ovarian; above 100 µM in the experiment with SK-OV-3 ovarian; 80.1 µM in the experiment with MDA-N. Also, the TGI in the experiment on TK-10 renal, with HT29 colon, with HOP-62 NSCLC, with EKVX NSCLC, in the experiment on LOX IMVI melanoma and in the experiment on UO-31 renal was above 100 µM throughout. Also, the TGI with UACC-257 melanoma, in the experiment with SK-MEL-28 melanoma, in the experiment on NCI-H226 lung, in the experiment on A549 NSCLC, in the experiment with SNB-19 CNS and in the experiment with HCT-116 colon was above 100 µM throughout.
In the case of `Cc1cc(S(=O)(=O)Nc2nnc3cnc4ccccc4n23)c(S)cc1Cl`, the TGI with CCRF-CEM leukemia was above 100 µM; with SK-MEL-5 melanoma, above 85.9 µM; with BT-549 breast it was above 100 µM; with OVCAR-8 ovarian, above 100 µM; in the experiment on SK-OV-3 ovarian, above 100 µM; in the experiment with MDA-N, above 100 µM. Besides, the TGI with TK-10 renal, with HT29 colon, in the experiment on HOP-62 NSCLC, with EKVX NSCLC, in the experiment with LOX IMVI melanoma and with UO-31 renal was above 100 µM throughout. The TGI with UACC-257 melanoma, with SK-MEL-28 melanoma, in the experiment on NCI-H226 lung, with A549 NSCLC, in the experiment on SNB-19 CNS and in the experiment on HCT-116 colon was above 100 µM in each case.
Turning to `O=C(N=c1ccc2nc(=O)[nH]n(O)c-2c1)C(F)(F)F`, the total growth inhibition concentration (TGI) in the experiment with CCRF-CEM leukemia, with SK-MEL-5 melanoma, in the experiment with BT-549 breast, with OVCAR-8 ovarian, in the experiment on SK-OV-3 ovarian and with MDA-N was above 100 µM each time. Moreover, the total growth inhibition concentration (TGI) with TK-10 renal, in the experiment on HT29 colon, in the experiment with HOP-62 NSCLC, in the experiment on EKVX NSCLC, in the experiment with LOX IMVI melanoma and in the experiment on UO-31 renal was above 100 µM in each case. The TGI in the experiment on UACC-257 melanoma, in the experiment on SK-MEL-28 melanoma, with NCI-H226 lung, in the experiment on A549 NSCLC, in the experiment on SNB-19 CNS and with HCT-116 colon was above 100 µM in each case.
For `NCC(O)CNC(=O)c1ccc(-c2ccc(-c3ccc(C(=O)NCC(O)CN)cc3)o2)cc1` (configuration not stated), the TGI was above 100 µM in the experiment on CCRF-CEM leukemia; above 100 µM with SK-MEL-5 melanoma; 88.5 µM in the experiment on BT-549 breast; above 100 µM with OVCAR-8 ovarian; 58 µM in the experiment with SK-OV-3 ovarian; above 100 µM in the experiment with MDA-N. For the same compound, the total growth inhibition concentration (TGI) in the experiment with TK-10 renal was 38.9 µM; in the experiment with HT29 colon, above 100 µM; with HOP-62 NSCLC, 74.4 µM; with EKVX NSCLC, 70.3 µM; in the experiment with LOX IMVI melanoma it was above 100 µM; with UO-31 renal, above 100 µM. The total growth inhibition concentration (TGI) in the experiment on UACC-257 melanoma is above 100 µM; in the experiment on SK-MEL-28 melanoma, above 100 µM; in the experiment with NCI-H226 lung, 55.4 µM; in the experiment with A549 NSCLC, above 100 µM; with SNB-19 CNS it was 46.2 µM; with HCT-116 colon it was 52.4 µM.
In the case of `CC(C)(C)OC(=O)CN1CCNCCN(CC(=O)OC(C)(C)C)CCNCC1`, the TGI with CCRF-CEM leukemia, with SK-MEL-5 melanoma, with BT-549 breast, in the experiment on OVCAR-8 ovarian, with SK-OV-3 ovarian and in the experiment with MDA-N was above 100 µM in each case. The TGI with TK-10 renal, in the experiment with HT29 colon, with HOP-62 NSCLC, in the experiment on EKVX NSCLC, in the experiment with LOX IMVI melanoma and with UO-31 renal was above 100 µM throughout. For the same compound, the total growth inhibition concentration (TGI) with UACC-257 melanoma, in the experiment with SK-MEL-28 melanoma, with NCI-H226 lung, in the experiment on A549 NSCLC, in the experiment on SNB-19 CNS and with HCT-116 colon was above 100 µM throughout.
On to `C=C(C)COC1CCCCO1` (configuration not stated), for which the TGI in the experiment on CCRF-CEM leukemia, in the experiment with SK-MEL-5 melanoma, with BT-549 breast, in the experiment on OVCAR-8 ovarian, in the experiment with SK-OV-3 ovarian and with MDA-N was above 100 µM throughout. Moreover, the total growth inhibition concentration (TGI) with TK-10 renal, in the experiment on HT29 colon, in the experiment on HOP-62 NSCLC, in the experiment on EKVX NSCLC, with LOX IMVI melanoma and with UO-31 renal was above 100 µM throughout. Moreover, the total growth inhibition concentration (TGI) with UACC-257 melanoma, in the experiment on SK-MEL-28 melanoma, with NCI-H226 lung, in the experiment with A549 NSCLC, in the experiment with SNB-19 CNS and in the experiment on HCT-116 colon was above 100 µM throughout.
`CC(C)(C)c1cc(OCc2nn3c(Cc4ccccc4)nnc3s2)c(Cl)cc1OCc1nn2c(Cc3ccccc3)nnc2s1`: the total growth inhibition concentration (TGI) with CCRF-CEM leukemia is above 100 µM; in the experiment with SK-MEL-5 melanoma, 26.6 µM; in the experiment with BT-549 breast it was above 100 µM; with OVCAR-8 ovarian, above 100 µM; with SK-OV-3 ovarian, above 100 µM; with MDA-N, above 100 µM. For the same compound, the concentration for total growth inhibition (TGI) in the experiment on TK-10 renal, with HT29 colon, in the experiment with HOP-62 NSCLC, in the experiment on EKVX NSCLC, in the experiment on LOX IMVI melanoma and in the experiment with UO-31 renal was above 100 µM throughout. Also, the TGI in the experiment on UACC-257 melanoma was 93.1 µM; in the experiment with SK-MEL-28 melanoma, above 100 µM; in the experiment on NCI-H226 lung, above 100 µM; in the experiment with A549 NSCLC, above 100 µM; with SNB-19 CNS, above 100 µM; in the experiment with HCT-116 colon it was above 100 µM.

The values are drawn from PubChem BioAssay (NCI).
